{"source": "patent US20080305186A1", "about": "“Method and Composition for the Treatment of Cardiac Hypertrophy” (BOARD OF REGENTS, THE UNIVERSITY OF TEXAS SYSTEM, priority 2007, published 2008)", "test_system": "cardiac gene expression", "assay": "Microarray analysis of cardiac gene expression (GeneChip Mouse Genome 430 2.0)", "format": "in vivo, mice", "conditions": "mouse heart, vs isoproterenol only (CH)", "method": "Microarray Sample Preparation and Analysis. Animal hearts were rapidly removed, and the atria and right ventricles were cut and immediately plunged into TRIzol Reagent (Life Technologies). Total RNA was isolated following the manufacturer's instructions, purified by phenol-chloroform extraction and then ethanol precipitation, and 20 μg further processed for microarray analysis. Briefly, cDNA synthesis, in vitro transcription, and labeling and fragmentation to produce the oligonucleotide probes were performed as instructed by the GeneChip manufacturer (Affymetrix). The probes were first hybridized to a test array (Affymetrix) and then to the GeneChip Mouse Genome 430 2.0 Array, using the GeneChip Hybridization Oven 640. The chips were washed in a GeneChip Fluidics Station 450 (Affymetrix), and the results were visualized with a GeneChip G7 scanner (Affymetrix). RMA normalization, pairwise comparisons, Student's t test and Benjamini and Hochberg correction were subsequently performed using GeneSifter (VizX Labs, Seattle, Wash.) and Spotfire DecisionSite 8.3 (Spotfire, Inc., Somerville, Mass.).\nEffects on Gene Expression Profile. […] One mouse heart was used for each array, and was performed in triplicate, generating a total of 12 arrays. GeneSifter was used to perform RMA normalization, pairwise comparisons of averaged signal intensity values, and Student's t-test with Benjamini and Hochberg correction, and Spotfire was used to perform pairwise comparisons. […] Additionally, genes that were altered between any two N or cardiac hypertrophy samples were removed, as these alterations most likely represented normal variations between mice.", "data": [{"smiles": "C[C@H]1c2cccc(O)c2C(=O)C2=C(O)[C@]3(O)C(=O)C(C(N)=O)=C(O)[C@@H](N(C)C)[C@@H]3[C@@H](O)[C@@H]21", "note": "[doxycycline]", "values": [{"measurement": "FC cDNA, AK012898", "setting": "CH vs normal 3.3", "result": "−2.9", "unit": "fold"}, {"measurement": "FC Cyclin G2 (Ccng2), NM_007635", "setting": "CH vs normal 3.4", "result": "−3.1", "unit": "fold"}, {"measurement": "FC TRAF2 and K interacting kinase (Tnik), AI117633", "setting": "CH vs normal 3.4", "result": "−3.4", "unit": "fold"}, {"measurement": "FC cDNA, BB098431", "setting": "CH vs normal 3.4", "result": "−1.8", "unit": "fold"}, {"measurement": "FC Interleukin-1 receptor-associated kinase 3 (Irak3), AV228493", "setting": "CH vs normal 3.5", "result": "−2.1", "unit": "fold"}, {"measurement": "FC CD163 antigen (CD163), NM_053094", "setting": "CH vs normal 3.6", "result": "−2.1", "unit": "fold"}, {"measurement": "FC ATP-binding cassette, sub-family A (ABC1), member 1 (Abca1), BB305534", "setting": "CH vs normal 3.7", "result": "−1.9", "unit": "fold"}, {"measurement": "FC Mcf.2 transforming sequee-like (Mcf21), AV293368", "setting": "CH vs normal 3.7", "result": "−2.3", "unit": "fold"}, {"measurement": "FC cDNA, BE956710", "setting": "CH vs normal 3.7", "result": "−4.4", "unit": "fold"}, {"measurement": "FC cDNA, BG276629", "setting": "CH vs normal 3.7", "result": "−3.1", "unit": "fold"}, {"measurement": "FC Lipopolysaccharide binding protein (Lbp), NM_008489", "setting": "CH vs normal 3.8", "result": "−3.4", "unit": "fold"}, {"measurement": "FC Alcohol dehydrogenase 1, complex (Adh1), BC013477", "setting": "CH vs normal 3.9", "result": "−3.4", "unit": "fold"}, {"measurement": "FC Nuclear factor of kappa light polypeptide gene enhaer in B-cells inhibitor, zeta (Nfkbiz), NM_030612", "setting": "CH vs normal 3.9", "result": "−2.7", "unit": "fold"}, {"measurement": "FC cDNA, BB038506", "setting": "CH vs normal 3.9", "result": "−2.1", "unit": "fold"}, {"measurement": "FC Alpha-2-HS-glycoprotein (Ahsg), AI256465", "setting": "CH vs normal 4.0", "result": "−2.7", "unit": "fold"}, {"measurement": "FC BCL2/adenovirus E1B interacting protein 1, NIP3 (Bnip3), NM_009760", "setting": "CH vs normal 4.1", "result": "−2.0", "unit": "fold"}, {"measurement": "FC Chitinase 3-like 3 (Chi313), NM_009892", "setting": "CH vs normal 4.1", "result": "−4.1", "unit": "fold"}, {"measurement": "FC Colony stimulating factor 2 receptor, beta 2, low-affinity (granulocyte-macrophage) (Csf2rb2), NM_007781", "setting": "CH vs normal 4.1", "result": "−2.9", "unit": "fold"}, {"measurement": "FC NADPH oxidase 4 (Nox4), BC021378", "setting": "CH vs normal 4.3", "result": "−3.2", "unit": "fold"}, {"measurement": "FC Calcium-sensitive chloride conductae protein-1 (Clca1), AF047838", "setting": "CH vs normal 4.4", "result": "−3.6", "unit": "fold"}, {"measurement": "FC Connector enhaer of kinase suppressor of Ras 1 (Cnksr1), BB739754", "setting": "CH vs normal 4.4", "result": "−3.6", "unit": "fold"}, {"measurement": "FC cDNA, AK008807", "setting": "CH vs normal 4.5", "result": "−2.7", "unit": "fold"}, {"measurement": "FC Arrestin domain containing 2 (Arrdc2), AW542672", "setting": "CH vs normal 4.6", "result": "−3.5", "unit": "fold"}, {"measurement": "FC cDNA, BM117672", "setting": "CH vs normal 4.6", "result": "−3.2", "unit": "fold"}, {"measurement": "FC Serum amyloid A 3 (Saa3), NM_011315", "setting": "CH vs normal 4.7", "result": "−4.1", "unit": "fold"}, {"measurement": "FC Caer related gene-liver 1 (CRG-L1), AF282864", "setting": "CH vs normal 4.9", "result": "−3.0", "unit": "fold"}, {"measurement": "FC Calcium/calmodulin-dependent protein kinase II, beta (Camk2b), BG862223", "setting": "CH vs normal 4.9", "result": "−4.0", "unit": "fold"}, {"measurement": "FC Aryl hydrocarbon receptor nuclear translocator-like (Arnt1), BC011080", "setting": "CH vs normal 5.0", "result": "−5.1", "unit": "fold"}, {"measurement": "FC Oostatin receptor (Osmr), NM_011019", "setting": "CH vs normal 5.1", "result": "−2.6", "unit": "fold"}, {"measurement": "FC cDNA, BE634869", "setting": "CH vs normal 5.2", "result": "−2.8", "unit": "fold"}, {"measurement": "FC cDNA, BB795572", "setting": "CH vs normal 5.3", "result": "−2.3", "unit": "fold"}, {"measurement": "FC cDNA, AK009753", "setting": "CH vs normal 5.4", "result": "−3.0", "unit": "fold"}, {"measurement": "FC cDNA, AI607873", "setting": "CH vs normal 5.5", "result": "−4.0", "unit": "fold"}, {"measurement": "FC Cytokine inducible SH2-containing protein 3 (Socs3), BB241535", "setting": "CH vs normal 6.0", "result": "−3.5", "unit": "fold"}, {"measurement": "FC Apolipoprotein D (Apod), NM_007470", "setting": "CH vs normal 6.4", "result": "−3.4", "unit": "fold"}, {"measurement": "FC Cytochrome P450, 1b1, benz(a)anthracene inducible (Cyp1b1), NM_009994", "setting": "CH vs normal 6.4", "result": "−3.2", "unit": "fold"}, {"measurement": "FC Membrane-spanning 4-domains, subfamily A, member 6d (Ms4a6d), NM_026835", "setting": "CH vs normal 6.4", "result": "−2.3", "unit": "fold"}, {"measurement": "FC mVL30-1 retroelement mRNA sequee, BG066678", "setting": "CH vs normal 6.6", "result": "−4.2", "unit": "fold"}, {"measurement": "FC Proteoglycan 4 (megakaryocyte stimulating factor, articular superficial zone protein) (Prg4), NM_021400", "setting": "CH vs normal 6.8", "result": "−3.3", "unit": "fold"}, {"measurement": "FC cDNA, BF719154", "setting": "CH vs normal 7.0", "result": "−3.2", "unit": "fold"}, {"measurement": "FC CCAATenhaer binding protein (CEBP), delta (Cebpd), BB831146", "setting": "CH vs normal 7.4", "result": "−4.1", "unit": "fold"}, {"measurement": "FC Ca(2+)-sensitive chloride channel 2 (Clca2), AF108501", "setting": "CH vs normal 7.4", "result": "−5.1", "unit": "fold"}, {"measurement": "FC Lysyl oxidase (Lox), M65143", "setting": "CH vs normal 7.4", "result": "−2.7", "unit": "fold"}, {"measurement": "FC cDNA, AU018141", "setting": "CH vs normal 7.8", "result": "−3.2", "unit": "fold"}, {"measurement": "FC Cytokine inducible SH2-containing protein 3 (Socs3), BB831725", "setting": "CH vs normal 8.2", "result": "−4.9", "unit": "fold"}, {"measurement": "FC cDNA, BF682848", "setting": "CH vs normal 10.6, first BF682848 line", "result": "−5.7", "unit": "fold"}, {"measurement": "FC C-type (calcium dependent, carbohydrate recognition domain) lectin, superfamily member 8 (Clecsf8), NM_010819", "setting": "CH vs normal 10.8", "result": "−2.7", "unit": "fold"}, {"measurement": "FC Lysyl oxidase (Lox), NM_010728", "setting": "CH vs normal 11.1", "result": "−3.0", "unit": "fold"}, {"measurement": "FC Cyclin-dependent kinase inhibitor 1A (p21) (Cdkn1a), AK007630", "setting": "CH vs normal 14.6", "result": "−6.5", "unit": "fold"}, {"measurement": "FC FK506 binding protein 5 (51 kDa) (Fkbp5), BC015260", "setting": "CH vs normal 16.3", "result": "−4.5", "unit": "fold"}, {"measurement": "FC cDNA, BF682848", "setting": "CH vs normal 21.4, second BF682848 line", "result": "−5.2", "unit": "fold"}, {"measurement": "FC Lipocalin 2 (Lcn2), X14607", "setting": "CH vs normal 27.7", "result": "−13.3", "unit": "fold"}, {"measurement": "FC Serine protease inhibitor 2-2 (Spi2-2) (Serpin3n), NM_009252", "setting": "CH vs normal 40.5", "result": "−9.7", "unit": "fold"}, {"measurement": "FC Metallophosphoesterase domain containing 2 (Mpped2), AK012553", "setting": "CH vs normal −1.5", "result": 2.0, "unit": "fold"}, {"measurement": "FC ATP-sensitive potassium channel subunit (Kir6.2) (Kcnj11), U73626", "setting": "CH vs normal −1.6", "result": 1.8, "unit": "fold"}, {"measurement": "FC CD99 antigen (CD99), AK002762", "setting": "CH vs normal −1.6", "result": 1.6, "unit": "fold"}, {"measurement": "FC CD248 antigen, endosialin (CD248), NM_054042", "setting": "CH vs normal −1.6", "result": 1.7, "unit": "fold"}, {"measurement": "FC cDNA, BB627097", "setting": "CH vs normal −1.6", "result": 2.4, "unit": "fold"}, {"measurement": "FC cDNA, BM229539", "setting": "CH vs normal −1.6", "result": 2.1, "unit": "fold"}, {"measurement": "FC Cytoplasmic polyadenylation element binding protein 3 (Cpeb3), BB281000", "setting": "CH vs normal −1.7", "result": 2.6, "unit": "fold"}]}]}
